This note sets out measurements from patent publication US8236143B2, “Controlling chemical reactions by spectral chemistry and spectral conditioning” (GR Intellectual Reserve, LLC, priority 2002, dated 2012).

Data set [1] is described as follows: Sucrose solubility in sodium-lamp conditioned vs control water at room temperature (22° C.). Format: physicochemical. The procedure:
Beaker “II” was placed under another sodium lamp 12 as like Beaker “KK”; and Beaker “JJ” was placed in the same incubator as Beaker “LL”. […] Specifically, Beaker “GG” was placed under another sodium lamp 12 as like Beaker “KK” and Beaker “II”; and Becker “HH” was placed into the same incubator as Beaker “LL” and “II”.

Data set [2] can be described thus: Phenyl salicylate solubility in neon-lamp conditioned vs unconditioned acetone at room temperature. The settings on record: about 20 hours equilibration. Format: physicochemical. Here is the method:
Acetone (about 1 ml) was pipetted into small glass test tubes and stoppers placed in the tube. Tubes were placed under a neon lam; (about 8m/cm^2) in an otherwise dark room for about 1-5 hours at about 28° C. ambient temperature. Tubes were also placed simultaneously in an incubator at 28° C. for about 1.5 hours.
Phenyl solicylate (about 3.50 grams) was added to each tube leaving a layer undissolved on the bottom of each tube. The solutions were allowed to equilibrate (about 20 hours). Solution was filtered over the crystals and 0.500 ml pipetted into fresh tubes.
After the acetone evaporated, dry weights of phenyl solicylate per ml dissolved in conditioned and unconditioned acetone were determined.

For the molecule `OC[C@H]1O[C@@](CO)(O[C@H]2O[C@H](CO)[C@@H](O)[C@H](O)[C@H]2O)[C@@H](O)[C@@H]1O` [Sucrose], the “Weight (dry sucrose weight per 100 ml solution)” value in data set [1] (Beaker GG, water under sodium lamp one hour, solution at 23.5° C.) stood at 49 g/100 ml; in data set [1] (Beaker HH, control water 1 hour in incubator, solution at 23° C.), 49 g/100 ml; in data set [1] (Beaker II, water under sodium lamp two hours, solution at 23.5° C.), 47 g/100 ml; in data set [1] (Beaker JJ, control water 2 hours in incubator, solution at 23.5° C.), 44 g/100 ml; in data set [1] (Beaker KK, water under Na lamp three hours, solution at 23.5° C.), 46 g/100 ml; in data set [1] (Beaker LL, control water 3 hours in incubator, solution at 23.5° C.), 49 g/100 ml. Besides, the “more sucrose dissolved by conditioned water than by untreated control water” value in data set [1] (two hours exposure of water to the sodium lamp) was “about 7%”.

`O=C(Oc1ccccc1)c1ccccc1O` [phenyl salicylate]: the “Average amount of phenyl salicylate dissolved” value in data set [2] (acetone conditioned under neon lamp) came to 0.78 g/mL; in data set [2] (unconditioned acetone (incubator 28° C.)), 0.68 g/mL.
